# Values quoted from earlier work in US20200253884A1, “NANOBIOLOGIC COMPOSITIONS FOR PROMOTING TRAINED IMMUNITY” (ICAHN SCHOOL OF MEDICINE AT MOUNT SINAI, priority 2017, published 2020).
# Legend:
# [1] = test system: diffuse large B-cell lymphoma (DLBCL); conditions: preliminary results
# [2] = test system: multiple cancers; conditions: in vivo
substance,measurement,setting,value
CT-011: humanized IgG1 monoclonal antibody against PD-1,subjects progression-free at the end of the follow-up period,[1]; control group 47%,70%
same,subjects alive,[1]; control group 62%,82%
Medi 4736: anti-PD-L1 antibody,clinical activity,[2],durable clinical activity
same,safety profile,[2],acceptable safety profile
